Measurements taken from patent US11945779B2, “Inhibitors of cancer metastasis through inhibiting migration and invasion of cancer cells” (VSpharmtech, priority 2018, dated 2024).

What was measured:
[1] = system: human colon cancer cell line DLD-1; test: Lamellipodia formation inhibition (confocal microscope), DLD-1; assay type: cell-based; details: DLD-1, 6 hours, FIG. 9
Method: (§1) A human colon cancer cell line DLD-1, a human pancreatic cancer cell line AsPc-1, a human melanoma cell line A375P, and normal cells MCF10A were each cultured to 1×10^5 cell density on a 35 mm high-m dish plate (ibid GmbH). The cells attached to the plate were washed with phosphate buffered saline (PBS) and then treated with DMSO or CG-618 dissolved in DMSO for 6 hours. After removing the cell culture medium from the plate, the plate was washed two times with PBS and treated with 4% paraformaldehyde dissolved in PBS at room temperature for 10 minutes to immobilize the cells. The plate was washed with PBS once and then treated with 0.2% Triton X-100 at room temperature for 10 minutes to enhance cell permeability. The plate was washed with PBS and treated with 1% BSA dissolved in PBS at room temperature for 1 hour to block non-specific bonds. In order to check the distribution in cells of filament actin (F-actin), phalloidin bound with Alexa Fluor 488, which was specifically bound with F-actin, was treated at room temperature for 15 minutes. The plate was washed with PBS three times and then treated with 2 mg/mL 4′,6′-diamidino-2-phenylindole (DAPAI) dissolved in PBS for two minutes at room temperature to dye the nucleus. The plate was washed with PBS three times and filled with 1 mL PBS. […] The obtained images were analyzed by an analysis program (LSM Version 3.2 software).

[2] = system: human pancreatic cancer cell line AsPc-1; test: Lamellipodia formation inhibition (confocal microscope), AsPc-1; assay type: cell-based; details: AsPc-1, 6 hours, FIG. 9
Method: as §1

normal cells MCF10A = test: Cell migration of normal cells MCF10A; assay type: cell-based; details: FIG. 2
[3] = Acute toxicity test for oral administration to rats; details: rat, in vivo, 1000 mg/kg; SD rats, single oral dose; read-out: Minimum dose (LD50) of oral administration
Method: Six-week-old specific pathogen free (SPF) SD-based rats were divided by two per group and then CG-608, CG-609, or CG-618 prepared in Example 1, 2, or 9 was dissolved in distilled water for injection and orally administered to rats once in a dose of 1000 mg/kg.

[4] = system: human-derived colon cancer cell line (HCT-116 luciferase); test: Colon cancer liver metastasis implant model in nude mouse (live animal imaging); assay type: in vivo; details: for Cancer metastasis inhibitory effect by whole image data: 20 times, five times a week
Excerpt: In this experiment, a human-derived colon cancer cell line (HCT-116 luciferase) was implanted to the spleen and then the spleen was removed and sutured after four days. In a colon cancer liver metastasis implant model, cancer metastasis inhibitory activity by oral administration of CG-609 was verified using a live animal imaging system. As the animal, an Athymic-NCr NCr-nu SPF 5-week-old nude mouse supplied from Koatech (Pyeongtaek-si, Gyeonggi-do) was used. By adjusting a concentration of cancer cells to 2×10^6 cells/mL, the cell culture solution was injected directly into the spleen using a syringe (31 G needle, ½ cc) by 30 μL per mouse. The drug CG-609 was dissolved to a concentration of 5 mg/kg or 10 mg/kg using 0.5% Tween80 and then orally administered to the mouse in an amount of 10 mL/kg total 20 times on a schedule of five times a week.
HCT-116 luciferase cells were implanted, drug administration started from the day after the cancer cell was implanted, and the cells were imaged a total of seven times until the 25th day, the end of the experiment. During imaging, 50 μL of […] was intraperitoneally administered into each side of the animal's abdomen at a concentration of luciferin 15 mg/mL, and then photographed using an optical imaging system (IVIS-spectrum CT, PerkinElmer). On the final day of the test, the mouse was imaged and then […], and major organs (liver, kidney, and colon) were extracted to be imaged, and then the degree of image signal was measured. The values of all measurement items were tested for statistical significance by comparing a solvent control and a drug administration group using a t-TEST statistical method (FIGS. 10A and 10B).

[5] = system: pancreatic cancer cells CFPAC-1; test: Trans-well cancer cell migration inhibition, CFPAC-1; assay type: cell-based; details: CFPAC-1, concentration not given, FIG. 3
Method: In order to analyze cancer cell migration inhibitory activity of CG-608, CG-609 or CG-618 prepared in Examples 1, 2, or 9, cell migration inhibitory activity was measured using a trans-well by targeting a colon cancer cell line DLD-1 (ATCC-CCL-221), pancreatic cancer cell lines AsPc-1 (ATCC-CCL-1682). CFPAC-1 (ATCC-CCL-1918). Panc-1 (ATCC-CCL-1469), and Miapaca-2 (ATCC-CCL-1420), a skin cancer cell line A375-P (ATCC-CCL-3224), lung cancer cell lines HCC-827 (ATCC-CCL-2868), A549 (ATCC-CCL-185), and NCI-H460 (ATCC-CCL-177), a prostate cancer cell line DU145 (ATCC-HTB-81), a stomach cancer cell line NuGC-3 (JCRB0822), and an ovarian cancer cell line SKOV-3 (ATCC-HTB-77).
First, the number of DLD-1 cells was measured using a hemocytometer in an RPMI medium without FBS. […] After culture, […] of crystal violet (5 mg/mL of 20% […] was added to each well of the 24-well plate and the trans-well was dyed at room temperature for 30 minutes. The dyed trans-well was washed with PBS and non-migrated cells were wiped off with cotton swabs. The prepared sample was photographed with an inverted microscope mounted with a digital camera (TE 300, Nikon. Japan) and then the number of migrated cells was counted. The degree of inhibiting cell migration was calculated by Equation 1 for a group treated with the sample compared to a control group (DMSO). […]

Compound	Formation of lamellipodia [1]	Formation of lamellipodia [2]	Cell migration of normal cells (normal cells MCF10A)	LD50 [3] [mg/kg]	Colon metastasis inhibitory effect ([4]; 5 mg/kg oral) [%]	Liver metastasis inhibitory effect ([4]; 5 mg/kg oral) [%]	Renal metastasis inhibitory effect ([4]; 5 mg/kg oral) [%]	Cancer metastasis inhibitory effect by whole image data ([4]; 5 mg/kg oral) [%]	Inhibition of cancer metastasis in animal experiment ([4]; 5 mg/kg, 10 times lower dose than benproperine (50 mg/kg), FIGS. 10A and 10B) [%]	Colon metastasis inhibitory effect ([4]; 10 mg/kg oral) [%]	Liver metastasis inhibitory effect ([4]; 10 mg/kg oral) [%]	Renal metastasis inhibitory effect ([4]; 10 mg/kg oral) [%]	Cancer metastasis inhibitory effect by whole image data ([4]; 10 mg/kg oral) [%]	Inhibition of cell migration [5] [%]
CC1CCCCN1C(C)COc1ccccc1Cc1ccccc1 (racemic) [CG-618, 1-(1-(2-benzylphenoxy)propan-2-yl)-2-methylpiperidine]	inhibits formation of lamellipodia	inhibits formation of lamellipodia	did not inhibit	≥ 1000										
C[C@H](COc1ccccc1Cc1ccccc1)N1CCCC[C@@H]1C [CG-609, (S)-1-((R)-1-(2-benzylphenoxy)propan-2-yl)-2-methylpiperidine]			did not inhibit	≥ 1000	76.9	47.7	72.4	77.9	≥ 50	85.6	58.6	76.1	80.1	≥ 50
